# Test results as given in ChEMBL document CHEMBL1159023, “Fistularin 3 and 11-ketofistularin 3. Feline leukemia virus active bromotyrosine metabolites from the marine sponge Aplysina archeri” (J Nat Prod, 1992).
# Columns and labels:
# [1] = test system: Feline leukemia virus; experiment: Antiviral activity against Feline leukemia virus infected in cat CRFK cells assessed as inhibition of viral replication after 7 days by ELISA; format: functional; details: 168 h, read-out: ED50 (the source's name)
# [2] = Ratio of ID50 for cat CRFK cells to ED50 for Feline leukemia virus
# [3] = Cytotoxicity against cat CRFK cells assessed as reduction in cell viability after 5 days by MTT assay; format: cell-based, Felis catus; details: read-out: ID50
EC50 [1],Structure (SMILES),Ratio [2],CC50 at 120 h [3]
22 µM,COC1=C(Br)[C@@H](O)[C@]2(C=C1Br)CC(C(=O)NCC(O)c1cc(Br)c(OCC(O)CNC(=O)C3=NO[C@]4(C=C(Br)C(OC)=C(Br)[C@@H]4O)C3)c(Br)c1)=NO2 (some centres not stated) [FISTULARIN 3],>20,> 449 µM
15 µM,Nc1ccn([C@H]2CC[C@@H](CO)O2)c(=O)n1 [ZALCITABINE],133,1990 µM
0.1 µM,Cc1cn([C@H]2C[C@H](N=[N+]=[N-])[C@@H](CO)O2)c(=O)[nH]c1=O [ZIDOVUDINE],15170,1520 µM
42 µM,COC1=C(Br)[C@@H](O)[C@]2(C=C1Br)CC(C(=O)NCC(O)c1cc(Br)c(OCC(=O)CNC(=O)C3=NO[C@]4(C=C(Br)C(OC)=C(Br)[C@@H]4O)C3)c(Br)c1)=NO2 (some centres not stated),>11,> 449 µM
